The target in the test is T1, SNX17FERM-CT (amino acids 109-470) (Homo sapiens, UniProt Q15036).
T1 construct: His-Sumo3 (N, cleaved yes); made in house; host or cells: Escherichia coli BL21(DE3)
T1 sequence (Q15036 109-470): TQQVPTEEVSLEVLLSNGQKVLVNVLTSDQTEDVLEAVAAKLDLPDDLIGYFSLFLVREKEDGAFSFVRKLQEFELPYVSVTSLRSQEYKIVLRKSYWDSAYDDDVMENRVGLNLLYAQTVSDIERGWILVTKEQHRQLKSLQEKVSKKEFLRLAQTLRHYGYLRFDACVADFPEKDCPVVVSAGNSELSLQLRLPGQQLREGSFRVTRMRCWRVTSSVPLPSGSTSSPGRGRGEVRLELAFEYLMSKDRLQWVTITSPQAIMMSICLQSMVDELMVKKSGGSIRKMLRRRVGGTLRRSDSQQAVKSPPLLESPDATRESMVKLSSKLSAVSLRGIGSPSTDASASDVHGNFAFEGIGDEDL
Briefly: Fluorescence anisotropy binding of 5-FAM cargo peptides to SNX17FERM-CT. The conditions noted are these: read-out: KD SNX17FERM-CT. As to the method:
Lyophilized peptides were resuspended in 100 mM Hepes pH 8.0 at 5 mg/ml and further diluted in the assay buffer (50 mM Hepes pH 7.5, 300 mM NaCl, and 1 mM DTT). […] The mixture was incubated at 25 °C for at least 30 min and then transferred to 96 Flat Black plates. Fluorescence anisotropy was measured at 25 °C using Spark 10M Plate Reader (Tecan) with a 485/20 excitation filter and a 535/35 emission filter. The dissociation constants were calculated in GraphPad Prism by nonlinear regression fitting of the experimental data to a one-site total binding model. The final KD measurement is the mean of at least two independent experiments.

Where no end group is shown, it is not given here.

As to KWDTGENPIYKSAV [ITGB1 P-14-mer], the Kd was 72.5 µM.

Consider QQNGYENPTYKFFE [APP 14-mer], for which the Kd was determined as 19.1 µM.

Source of the values: paper PMC11772769, “Selective cargo and membrane recognition by SNX17 regulates its interaction with Retriever” (EMBO Reports, 2024).
